Tested on: 229E human corona virus (hCoV)
Test: 229E live virus assay (CPE, ATPlite readout in MRC-5 cells)
Type: cell-based, hCoV-229E
Details: Human coronavirus 229E, MRC5, hCoV-229E live virus, MOI 0.05, ATPlite readout, run in duplicate

Compound | EC50 [nM]
CC(C)(C)C[C@H](NC(=O)c1cc2c(Cl)cccc2[nH]1)C(=O)N1C[C@]2(C[C@H]1C#N)C(=O)Nc1ccc(Cl)cc12 [Example 450] | < 100
N#C[C@@H]1C[C@@]2(CN1C(=O)[C@H](Cc1ccccc1F)NC(=O)c1cc3c(F)cc(F)cc3[nH]1)C(=O)Nc1ccc(Cl)cc12 [Example 451] | 100 to 1000
N#C[C@@H]1C[C@@]2(CN1C(=O)[C@H](Cc1ccc(F)cc1)NC(=O)c1cc3c(F)cc(F)cc3[nH]1)C(=O)Nc1ccc(Cl)cc12 [Example 452] | 100 to 1000
[2H]C([2H])([2H])N(C(=O)c1cc2c(F)cc(F)cc2[nH]1)[C@@H](CC(C)(C)F)C(=O)N1C[C@]2(C[C@H]1C#N)C(=O)Nc1ccc(Cl)cc12 [Example 454, N-((S)-1-((3R,5'S)-5-chloro-5'-cyano-2-oxospiro[indoline-3,3'-pyrrolidin]-1'-yl)-4-fluoro-4-methyl-1-oxopentan-2-yl)-4,6-difluoro-N-(methyl-d3)-1H-indole-2-carboxamide] | < 100
CN(C(=O)c1cc2c(F)cc(F)cc2[nH]1)[C@@H](CC(C)(C)F)C(=O)N1C[C@]2(C[C@H]1C#N)C(=O)Nc1ccc(Cl)cc12 [Example 455] | < 100
[2H]C([2H])([2H])N(C(=O)c1cc2c(F)cc(F)cc2[nH]1)[C@@H](CC(C)(C)F)C(=O)N1C[C@]2(C[C@H]1C#N)C(=O)Nc1cc(C(F)(F)F)ccc12 [Example 472, N-((S)-1-((3R,5'S)-5'-cyano-2-oxo-6-(trifluoromethyl)spiro[indoline-3,3'-pyrrolidin]-1-yl)-4-fluoro-4-methyl-1-oxopentan-2-yl)-4,6-difluoro-N-(methyl-d3)-1H-indole-2-carboxamide] | < 100
CN(C(=O)C1(c2ccncc2)CC1)[C@@H](CC(C)(C)F)C(=O)N1C[C@]2(C[C@H]1C#N)C(=O)Nc1ccc(Cl)cc12 [Example 473, N-((S)-1-((3R,5'S)-5-chloro-5'-cyano-2-oxospiro[indoline-3,3'-pyrrolidin]-1'-yl)-4-fluoro-4-methyl-1-oxopentan-2-yl)-N-methyl-1-(pyridin-4-yl)cyclopropane-1-carboxamide] | 100 to 1000
[2H]C([2H])([2H])N(C(=O)Cc1ccncc1)[C@@H](CC(C)(C)F)C(=O)N1C[C@]2(C[C@H]1C#N)C(=O)Nc1ccc(Cl)cc12 [Example 474] | 100 to 1000
[2H]C([2H])([2H])N(C(=O)C1(c2ccncc2)CC1)[C@@H](CC(C)(C)F)C(=O)N1C[C@]2(C[C@H]1C#N)C(=O)Nc1ccc(Cl)cc12 [Example 475] | 100 to 1000
CN(C(=O)Cc1cccnc1)[C@@H](CC(C)(C)F)C(=O)N1C[C@]2(C[C@H]1C#N)C(=O)Nc1ccc(Cl)cc12 [Example 476] | 100 to 1000
CN(C(=O)Cc1ccncc1)[C@@H](CC(C)(C)F)C(=O)N1C[C@]2(C[C@H]1C#N)C(=O)Nc1ccc(Cl)cc12 [Example 477] | 100 to 1000
CN(C(=O)C1(c2ccccn2)CC1)[C@@H](CC(C)(C)F)C(=O)N1C[C@]2(C[C@H]1C#N)C(=O)Nc1ccc(Cl)cc12 [Example 478] | 100 to 1000
CN(C(=O)C1(c2cccnc2)CC1)[C@@H](CC(C)(C)F)C(=O)N1C[C@]2(C[C@H]1C#N)C(=O)Nc1ccc(Cl)cc12 [Example 479] | 100 to 1000
CN(C(=O)C(F)(F)c1ccncc1)[C@@H](CC(C)(C)F)C(=O)N1C[C@]2(C[C@H]1C#N)C(=O)Nc1ccc(Cl)cc12 [Example 480] | < 100
CN(C(=O)C(F)(F)c1ccccn1)[C@@H](CC(C)(C)F)C(=O)N1C[C@]2(C[C@H]1C#N)C(=O)Nc1ccc(Cl)cc12 [Example 481] | 100 to 1000
CN(C(=O)C(F)(F)c1cccnc1)[C@@H](CC(C)(C)F)C(=O)N1C[C@]2(C[C@H]1C#N)C(=O)Nc1ccc(Cl)cc12 [Example 482] | < 100
CN(C(=O)Cc1ccccn1)[C@@H](CC(C)(C)F)C(=O)N1C[C@]2(C[C@H]1C#N)C(=O)Nc1ccc(Cl)cc12 [Example 483] | 100 to 1000
CN(C(=O)Cc1cnccn1)[C@@H](CC(C)(C)F)C(=O)N1C[C@]2(C[C@H]1C#N)C(=O)Nc1ccc(Cl)cc12 [Example 484] | 100 to 1000
CN(C(=O)Cc1cccc(C(F)(F)F)n1)[C@@H](CC(C)(C)F)C(=O)N1C[C@]2(C[C@H]1C#N)C(=O)Nc1ccc(Cl)cc12 [Example 485] | 100 to 1000
Cc1cccc(C(F)(F)C(=O)N(C)[C@@H](CC(C)(C)F)C(=O)N2C[C@]3(C[C@H]2C#N)C(=O)Nc2ccc(Cl)cc23)n1 [Example 486] | 100 to 1000
Cc1cccc(CC(=O)N(C)[C@@H](CC(C)(C)F)C(=O)N2C[C@]3(C[C@H]2C#N)C(=O)Nc2ccc(Cl)cc23)n1 [Example 487] | 100 to 1000
N#C[C@@H]1C[C@@]2(CN1C(=O)[C@H](CC1CC1)NC(=O)OCc1c(F)cccc1F)C(=O)Nc1ccc(Cl)cc12 [Example 492, 2,6-difluorobenzyl ((S)-1-((3R,5'S)-5-chloro-5'-cyano-2-oxospiro[indoline-3,3'-pyrrolidin]-1'-yl)-3-cyclopropyl-1-oxopropan-2-yl)carbamate] | 100 to 1000
N#C[C@@H]1C[C@@]2(CN1C(=O)[C@H](CC1CC1)NC(=O)OCc1ccc(F)cc1F)C(=O)Nc1ccc(Cl)cc12 [Example 493] | 100 to 1000
C[C@@H](OC(=O)N[C@@H](CC(C)(C)C)C(=O)N1C[C@]2(C[C@H]1C#N)C(=O)Nc1ccc(Cl)cc12)c1ccc(F)cc1 [Example 495] | 100 to 1000
CC(C)(C)C[C@H](NC(=O)OC(C)(C)c1ccc(F)cc1)C(=O)N1C[C@]2(C[C@H]1C#N)C(=O)Nc1ccc(Cl)cc12 [Example 496] | > 1000
CC(C)C[C@@H](C(=O)N1C[C@]2(C[C@H]1C(=O)O)C(=O)Nc1ccc(Cl)cc12)N(C)C(=O)c1cc2c(F)cc(F)cc2[nH]1 [Example 497, (3R,5'S)-5-chloro-1'-(N-(4,6-difluoro-1H-indole-2-carbonyl)-N-methyl-L-leucyl)-2-oxospiro[indoline-3,3'-pyrrolidine]-5'-carboxylic acid] | > 1000
C=C(C)c1ccc2c(c1)[C@@]1(C[C@@H](C#N)N(C(=O)[C@H](CC(C)C)N(C)C(=O)c3cc4c(F)cc(F)cc4[nH]3)C1)C(=O)N2 [Example 498, N-((S)-1-((3R,5'S)-5'-cyano-2-oxo-5-(prop-1-en-2-yl)spiro[indoline-3,3'-pyrrolidin]-1'-yl)-4-methyl-1-oxopentan-2-yl)-4,6-difluoro-N-methyl-1H-indole-2-carboxamide] | < 100
CC(=O)c1ccc2c(c1)[C@@]1(C[C@@H](C#N)N(C(=O)[C@H](CC(C)C)N(C)C(=O)c3cc4c(F)cc(F)cc4[nH]3)C1)C(=O)N2 [Example 499, N-((S)-1-((3R,5'S)-5-acetyl-5'-cyano-2-oxospiro[indoline-3,3'-pyrrolidin]-1'-yl)-4-methyl-1-oxopentan-2-yl)-4,6-difluoro-N-methyl-1H-indole-2-carboxamide] | < 100
CC(C)C[C@@H](C(=O)N1C[C@]2(C[C@H]1C#N)C(=O)Nc1ccc(S(C)(=O)=O)cc12)N(C)C(=O)c1cc2c(F)cc(F)cc2[nH]1 [Example 500, N-((S)-1-((3R,5'S)-5'-cyano-5-(methylsulfonyl)-2-oxospiro[indoline-3,3'-pyrrolidin]-1'-yl)-4-methyl-1-oxopentan-2-yl)-4,6-difluoro-N-methyl-1H-indole-2-carboxamide] | < 100

Reference: patent EP4001279A1, “NOVEL SPIROPYRROLIDINE DERIVED ANTIVIRAL AGENTS” (Enanta Pharmaceuticals, Inc., priority 2020, dated 2022)
